Source: patent publication US9532519B2, “Plant growth regulator and use thereof” (Japan Science and Technology Agency, priority 2006, dated 2017)

Columns and labels:
[1] = system: Rose (breed; Patiohit alicante); test: Influence of oxidized glutathione on growth of rose (Patiohit alicante); type: in vivo; conditions: 50 mL of 0.5 mM-GSSG two times a week for four months, then pruned
Protocol: Rose (breed; Patiohit alicante) was fertilized with 50 mL of 0.5 mM-GSSG solution two times a week for four months and then pruned completely and cultivated.

[2] = system: Sweet corn; test: Effect 4 of oxidized glutathione on productivity of corn (method and time of treatment); type: in vivo; conditions: 20 mL of 0.2 mM-GSSG each time, to roots or sprayed to stem and leaves; any of the treatment times
Protocol: Sweet corn was cultivated under the same conditions as those of <15.
Harvest index of the plant thus obtained was measured.

oxidized glutathione [GSSG]
growth of new floral buds vs not treated [1]: significant promotion of growth of new floral buds
harvest index vs not treated [2]: significantly increased
